Measurements: ChEMBL document CHEMBL3885881, “DrugMatrix”

Organism: Rattus norvegicus
Assay: DrugMatrix - Regimen: Daily Repeat
Type: toxicity, organism-based, Sprague-Dawley
Parameters: regimen Daily Repeat, gender Male, age 6-8 weeks
Conditions: in vivo, sc, 0.4 mg/kg, route subcutaneous, dose level Low, […]; for ABSOLUTE BASOPHIL / ABSOLUTE EOSINOPHIL / ABSOLUTE LYMPHOCYTE / ABSOLUTE MONOCYTE / ABSOLUTE SEGMENTED NEUTROPHIL / BASOPHIL / EOSINOPHIL / ERYTHROCYTE COUNT / HEMATOCRIT / HEMOGLOBIN / LEUKOCYTE COUNT / LYMPHOCYTE / MEAN CORPUSCULAR HEMOGLOBIN / MEAN CORPUSCULAR HEMOGLOBIN CONCENTRATION / MEAN CORPUSCULAR VOLUME / MONOCYTE / NEUTROPHIL / NUCLEATED RED BLOOD CELLS / PLATELET COUNT: tissue Blood; for ALANINE AMINOTRANSFERASE / ALBUMIN / ALKALINE PHOSPHATASE / ASPARTATE AMINOTRANSFERASE / BLOOD UREA NITROGEN / CARBON DIOXIDE / CHLORIDE / CHOLESTEROL / CREATINE PHOSPHOKINASE / CREATININE / GLUCOSE / LACTATE DEHYDROGENASE / LIPASE / PHOSPHORUS / POTASSIUM / SODIUM / TOTAL BILIRUBIN / TOTAL PROTEIN / URIC ACID: tissue Plasma

SMILES: COc1cc([C@@H]2c3cc4c(cc3[C@H](O)[C@H]3COC(=O)[C@H]23)OCO4)cc(OC)c1OC [PODOFILOX]
- ABSOLUTE BASOPHIL (72 h, time 3 day): 0 CELLS/uL
- ABSOLUTE EOSINOPHIL (72 h, time 3 day): 46.67 CELLS/uL
- ABSOLUTE LYMPHOCYTE (72 h, time 3 day): 10326.67 CELLS/uL
- ABSOLUTE MONOCYTE (72 h, time 3 day): 246 CELLS/uL
- ABSOLUTE SEGMENTED NEUTROPHIL (72 h, time 3 day): 1114 CELLS/uL
- BASOPHIL (72 h, time 3 day): 0%
- EOSINOPHIL (72 h, time 3 day): 0.33%
- ERYTHROCYTE COUNT (72 h, time 3 day): 5.36 x10E6/uL
- HEMATOCRIT (72 h, time 3 day): 33.43%
- HEMOGLOBIN (72 h, time 3 day): 12.37 G/DL
- LEUKOCYTE COUNT (72 h, time 3 day): 11.73 x10E3/uL
- LYMPHOCYTE (72 h, time 3 day): 88.33%
- MEAN CORPUSCULAR HEMOGLOBIN (72 h, time 3 day): 23.07 pg
- MEAN CORPUSCULAR HEMOGLOBIN CONCENTRATION (72 h, time 3 day): 37 G/DL
- MEAN CORPUSCULAR VOLUME (72 h, time 3 day): 62.43 fL
- MONOCYTE (72 h, time 3 day): 2%
- NEUTROPHIL (72 h, time 3 day): 9.33%
- NUCLEATED RED BLOOD CELLS (72 h, time 3 day): 0 /100WBC
- PLATELET COUNT (72 h, time 3 day): 1280.67 x10E3/uL
- ALANINE AMINOTRANSFERASE (72 h, time 3 day): 44.33 u/L
- ALBUMIN (72 h, time 3 day): 3.33 G/DL
- ALKALINE PHOSPHATASE (72 h, time 3 day): 320.67 u/L
- ASPARTATE AMINOTRANSFERASE (72 h, time 3 day): 77.67 u/L
- BLOOD UREA NITROGEN (72 h, time 3 day): 16.33 mg/dL
- CARBON DIOXIDE (72 h, time 3 day): 27.33 mmol/L
- CHLORIDE (72 h, time 3 day): 104.67 MEQ/L
- CHOLESTEROL (72 h, time 3 day): 67.33 mg/dL
- CREATINE PHOSPHOKINASE (72 h, time 3 day): 222.67 u/L
- CREATININE (72 h, time 3 day): 0.2 mg/dL
- GLUCOSE (72 h, time 3 day): 162 mg/dL
- LACTATE DEHYDROGENASE (72 h, time 3 day): 146.67 u/L
- LIPASE (72 h, time 3 day): 8 u/L
- PHOSPHORUS (72 h, time 3 day): 12.87 mg/dL
- POTASSIUM (72 h, time 3 day): 6.48 MEQ/L
- SODIUM (72 h, time 3 day): 146.23 MEQ/L
- TOTAL BILIRUBIN (72 h, time 3 day): 0.2 mg/dL
- TOTAL PROTEIN (72 h, time 3 day): 5.23 G/DL
- URIC ACID (72 h, time 3 day): 1.53 mg/dL
- ABSOLUTE BASOPHIL (120 h, time 5 day): 0 CELLS/uL
- ABSOLUTE EOSINOPHIL (120 h, time 5 day): 0 CELLS/uL
- ABSOLUTE LYMPHOCYTE (120 h, time 5 day): 4413.33 CELLS/uL
- ABSOLUTE MONOCYTE (120 h, time 5 day): 17.67 CELLS/uL
- ABSOLUTE SEGMENTED NEUTROPHIL (120 h, time 5 day): 1569 CELLS/uL
- BASOPHIL (120 h, time 5 day): 0%
- EOSINOPHIL (120 h, time 5 day): 0%
- ERYTHROCYTE COUNT (120 h, time 5 day): 5.41 x10E6/uL
- HEMATOCRIT (120 h, time 5 day): 33.67%
- HEMOGLOBIN (120 h, time 5 day): 12.57 G/DL
- LEUKOCYTE COUNT (120 h, time 5 day): 6 x10E3/uL
- LYMPHOCYTE (120 h, time 5 day): 73.67%
- MEAN CORPUSCULAR HEMOGLOBIN (120 h, time 5 day): 23.23 pg
- MEAN CORPUSCULAR HEMOGLOBIN CONCENTRATION (120 h, time 5 day): 37.33 G/DL
- MEAN CORPUSCULAR VOLUME (120 h, time 5 day): 62.3 fL
- MONOCYTE (120 h, time 5 day): 0.33%
- NEUTROPHIL (120 h, time 5 day): 26%
- NUCLEATED RED BLOOD CELLS (120 h, time 5 day): 0.67 /100WBC
- PLATELET COUNT (120 h, time 5 day): 1853.33 x10E3/uL
- ALANINE AMINOTRANSFERASE (120 h, time 5 day): 44.33 u/L
- ALBUMIN (120 h, time 5 day): 4.03 G/DL
- ALKALINE PHOSPHATASE (120 h, time 5 day): 296.33 u/L
- ASPARTATE AMINOTRANSFERASE (120 h, time 5 day): 117 u/L
- BLOOD UREA NITROGEN (120 h, time 5 day): 19.33 mg/dL
- CARBON DIOXIDE (120 h, time 5 day): 26 mmol/L
- CHLORIDE (120 h, time 5 day): 105.67 MEQ/L
- CHOLESTEROL (120 h, time 5 day): 82.67 mg/dL
- CREATINE PHOSPHOKINASE (120 h, time 5 day): 843.33 u/L
- CREATININE (120 h, time 5 day): 0.2 mg/dL
- GLUCOSE (120 h, time 5 day): 187.33 mg/dL
- LACTATE DEHYDROGENASE (120 h, time 5 day): 167.67 u/L
- LIPASE (120 h, time 5 day): 8.67 u/L
- PHOSPHORUS (120 h, time 5 day): 11.4 mg/dL
- POTASSIUM (120 h, time 5 day): 6.97 MEQ/L
- SODIUM (120 h, time 5 day): 148.4 MEQ/L
- TOTAL BILIRUBIN (120 h, time 5 day): 0.1 mg/dL
- TOTAL PROTEIN (120 h, time 5 day): 6.7 G/DL
- URIC ACID (120 h, time 5 day): 2.73 mg/dL
